{"source": "ChEMBL document CHEMBL3217750", "about": "“Small-molecule inhibitors of dimeric transcription factors: Antagonism of proteinprotein and proteinDNA interactions” (Medchemcomm, 2012)", "key": {"[1]": {"molecular_target": "Transcription factor AP1 (Homo sapiens, UniProt P01100+P05412)", "sequence (P05412 whole entry)": "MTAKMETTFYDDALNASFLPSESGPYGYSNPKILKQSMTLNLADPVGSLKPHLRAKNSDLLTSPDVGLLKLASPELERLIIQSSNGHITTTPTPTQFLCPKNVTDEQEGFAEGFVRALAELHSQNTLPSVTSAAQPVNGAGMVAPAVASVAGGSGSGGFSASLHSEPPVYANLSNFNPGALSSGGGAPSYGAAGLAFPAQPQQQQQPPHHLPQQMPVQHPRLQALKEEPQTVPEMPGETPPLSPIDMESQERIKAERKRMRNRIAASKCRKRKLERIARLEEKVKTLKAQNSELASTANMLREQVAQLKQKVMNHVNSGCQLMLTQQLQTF", "sequence (P01100 whole entry)": "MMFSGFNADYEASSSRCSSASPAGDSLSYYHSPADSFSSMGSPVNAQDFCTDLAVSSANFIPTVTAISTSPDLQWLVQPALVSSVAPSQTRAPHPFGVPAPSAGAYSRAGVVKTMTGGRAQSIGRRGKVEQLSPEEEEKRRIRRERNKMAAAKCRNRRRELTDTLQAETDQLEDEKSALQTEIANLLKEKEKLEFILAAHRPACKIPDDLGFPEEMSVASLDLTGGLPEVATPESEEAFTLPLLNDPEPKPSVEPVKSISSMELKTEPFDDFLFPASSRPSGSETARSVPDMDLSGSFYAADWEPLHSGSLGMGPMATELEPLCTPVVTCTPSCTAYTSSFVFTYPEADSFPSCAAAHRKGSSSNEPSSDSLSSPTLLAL", "test": "Inhibition of c-FOS/AP1 (unknown origin)", "assay_type": "protein-complex assay"}, "[2]": {"molecular_target": "T1, Myc proto-oncogene protein (Homo sapiens, UniProt P01106)", "T1 sequence (P01106 whole entry)": "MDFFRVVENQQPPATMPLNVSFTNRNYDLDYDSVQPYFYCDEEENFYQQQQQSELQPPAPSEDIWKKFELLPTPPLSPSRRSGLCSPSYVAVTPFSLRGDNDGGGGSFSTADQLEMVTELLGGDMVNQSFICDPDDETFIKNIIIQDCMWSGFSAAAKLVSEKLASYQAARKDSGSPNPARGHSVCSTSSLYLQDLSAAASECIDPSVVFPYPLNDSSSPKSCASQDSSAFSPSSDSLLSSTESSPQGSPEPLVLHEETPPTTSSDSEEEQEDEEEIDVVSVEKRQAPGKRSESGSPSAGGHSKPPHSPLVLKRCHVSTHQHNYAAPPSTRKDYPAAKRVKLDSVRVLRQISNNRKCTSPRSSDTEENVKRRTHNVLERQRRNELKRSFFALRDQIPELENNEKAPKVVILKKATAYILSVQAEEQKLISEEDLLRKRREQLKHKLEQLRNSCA", "test": "Inhibition of c-MYC in human HL60 cells by chemiluminescence assay", "assay_type": "cell-based, HL-60"}, "[3]": {"molecular_target": "Transcription factor Jun (Homo sapiens, UniProt P05412)", "sequence (P05412 whole entry)": "as the sequence (P05412 whole entry) above", "test": "Inhibition of AP-1 complex (unknown origin)"}, "[4]": {"species": "Homo sapiens", "test": "Ratio of curcumin IC50 to compound IC50 for AP-1 complex (unknown origin)"}, "[5]": {"species": "Homo sapiens", "test": "Selectivity ratio of IC50 for dimerized Max (unknown origin) to IC50 for c-Myc/Max (unknown origin)"}, "[6]": {"molecular_target": "Protein max (Homo sapiens, UniProt P61244)", "sequence (P61244 whole entry)": "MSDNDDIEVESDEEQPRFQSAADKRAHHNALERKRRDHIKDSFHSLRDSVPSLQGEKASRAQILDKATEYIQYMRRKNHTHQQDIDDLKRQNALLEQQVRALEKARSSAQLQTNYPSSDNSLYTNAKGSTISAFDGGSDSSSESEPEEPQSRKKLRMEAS", "test": "Inhibition of dimerized Max (unknown origin) DNA-binding activity"}, "[7]": {"molecular_target": "T2, c-Myc/Max (Homo sapiens, UniProt P01106+P61244)", "T2 sequence (P01106 whole entry)": "as the sequence (P01106 whole entry) above", "T2 sequence (P61244 whole entry)": "as the sequence (P61244 whole entry) above", "test": "Inhibition of c-Myc/Max (unknown origin) DNA-binding activity", "assay_type": "protein-complex assay"}, "[8]": {"molecular_target": "T1, Myc proto-oncogene protein", "test": "Binding affinity to c-MYC (353 to 437) (unknown origin) by fluorescence polarization assay"}, "[9]": {"species": "Homo sapiens", "test": "Selectivity ratio of IC50 for c-Myc/Max (unknown origin) to IC50 for AP-1 complex (unknown origin)"}, "[10]": {"molecular_target": "T2, c-Myc/Max", "test": "Inhibition of c-Myc/Max (unknown origin)", "assay_type": "protein-complex assay"}, "[11]": {"molecular_target": "T3, Lymphoid enhancer-binding factor 1 (Homo sapiens, UniProt Q9UJU2)", "T3 sequence (Q9UJU2 whole entry)": "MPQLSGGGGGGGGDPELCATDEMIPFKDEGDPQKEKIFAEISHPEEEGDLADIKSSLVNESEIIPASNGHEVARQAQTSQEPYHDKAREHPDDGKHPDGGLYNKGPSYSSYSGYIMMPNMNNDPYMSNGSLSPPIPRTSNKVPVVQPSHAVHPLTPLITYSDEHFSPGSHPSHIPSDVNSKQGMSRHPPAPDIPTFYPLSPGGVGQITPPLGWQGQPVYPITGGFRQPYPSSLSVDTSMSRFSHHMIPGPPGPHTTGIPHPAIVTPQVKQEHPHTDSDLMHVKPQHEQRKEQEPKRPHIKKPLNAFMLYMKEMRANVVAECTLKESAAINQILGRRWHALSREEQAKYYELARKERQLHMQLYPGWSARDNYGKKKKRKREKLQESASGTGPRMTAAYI", "test": "Inhibition of LEF-1 (unknown origin) expressed in CEF assessed as inhibition of beta catenin interaction by electrophoretic mobility shift assay"}, "[12]": {"molecular_target": "T3, Lymphoid enhancer-binding factor 1", "test": "Inhibition of LEF-1-mediated gene transcription in HEK293 cells after 48 hrs by luciferase reporter gene assay", "assay_type": "cell-based"}, "[13]": {"molecular_target": "T2, c-Myc/Max", "test": "Inhibition of c-Myc/Max (unknown origin) DNA-binding activity preincubated for 1 hr followed by DNA addition measured after 15 mins by electrophoretic mobility shift assay", "assay_type": "protein-complex assay"}, "[14]": {"tested_on": "HL-60", "test": "Antiproliferative activity against human HL60 cells", "assay_type": "functional, cell-based"}}, "note": "pIC50: −log10 of the molar value. Bridge positions count the residues as written; N and C are the ends. Peptide text beside a SMILES is read from it."}
{"smiles": "CC(=O)N[C@H]1CSSC[C@@H](C(N)=O)NC(=O)CNC(=O)[C@H](CC(=O)O)NC(=O)[C@H](C)NC(=O)[C@H](CC(C)C)NC(=O)[C@H](CC(=O)O)NC(=O)[C@H](CC(C)C)NC(=O)[C@H](CCC(N)=O)NC(=O)CNC1=O", "note": "(Ac-CGQLDLADGC-NH2; disulfide 1-10)", "values": [{"measurement": "pIC50", "setting": "[1]", "result": 5.10}]}
{"smiles": "CC(C)c1ccc(/C=C2\\SC(=S)N(CN3CCCCC3)C2=O)cc1", "values": [{"measurement": "pIC50", "setting": "[2]", "result": 4.54}]}
{"smiles": "COc1cc(/C=C/C(=O)/C=C(O)/C=C/c2cc(OC)c(O)c([N+](=O)[O-])c2)cc([N+](=O)[O-])c1O", "values": [{"measurement": "pIC50", "setting": "[3]", "result": 5.27}, {"measurement": "Ratio IC50", "setting": "[4]", "result": 90}]}
{"smiles": "CCOC(=O)c1cnn(-c2ccccc2)c1NC(=O)c1cc2nc(-c3ccco3)cc(C(F)(F)Cl)n2n1", "values": [{"measurement": "Ratio IC50", "setting": "[5]", "result": "> 2"}, {"measurement": "pIC50", "setting": "[6]", "result": 4.06}, {"measurement": "pIC50", "setting": "[7]", "result": 4.40}]}
{"smiles": "O=C(O)CCc1cc(C(=O)c2ccc(OC3CCCC3)cc2O)ccc1OCc1ccc2c(O)noc2c1", "values": [{"measurement": "pIC50", "setting": "[1]", "result": 3.70}]}
{"smiles": "COc1ccc(CNC(=O)c2cc3nc(-c4cccs4)cc(C(F)(F)F)n3n2)cc1", "values": [{"measurement": "pIC50", "setting": "[6]", "result": 4.14}, {"measurement": "pIC50", "setting": "[7]", "result": 4.52}]}
{"smiles": "O=[N+]([O-])c1ccc(Nc2ccccc2-c2ccccc2)c2nonc12", "values": [{"measurement": "Activity", "setting": "[8]", "result": 2.8, "unit": "µM"}]}
{"smiles": "CC1(C)CC[C@]2(C(=O)O)CC[C@]3(C)C(=CC[C@@H]4[C@@]5(C)CC[C@H](O[C@@H]6O[C@H](C(=O)O)[C@@H](O)[C@H](O[C@@H]7OC[C@H](O)[C@H](O)[C@H]7O)[C@H]6O)C(C)(C)[C@@H]5CC[C@]43C)[C@@H]2C1", "values": [{"measurement": "pIC50", "setting": "[3]", "result": 4.52}, {"measurement": "Ratio IC50", "setting": "[9]", "result": "> 100"}, {"measurement": "pIC50", "setting": "[10]", "result": 2.40}]}
{"smiles": "COC(=O)c1cc2cc(NC(=O)c3cc4cc(NC(=O)c5cc(NC(=O)OC(C)(C)C)cs5)ccc4[nH]3)ccc2[nH]1", "values": [{"measurement": "pIC50", "setting": "[11]", "result": 4.51}, {"measurement": "pIC50", "setting": "[12]", "result": 5.21}]}
{"smiles": "COC(=O)c1cnc2ccc(NC(=O)c3ccc4c(c3)c3cc(NC(=O)c5cc6cc(NC(=O)CCCN(C)C)ccc6o5)ccc3n4C)cc2c1", "values": [{"measurement": "pIC50", "setting": "[11]", "result": 3.94}, {"measurement": "pIC50", "setting": "[12]", "result": 6.82}]}
{"smiles": "CNC(=O)c1cc2c(cc1C(=O)NC[C@H](NS(=O)(=O)c1c(Cl)sc(Cl)c1Br)C(=O)OC(C)(C)C)CN(C(=O)CCC1CCN(C(=O)OC(C)(C)C)CC1)C2", "values": [{"measurement": "pIC50", "setting": "[13]", "result": 4.30}]}
{"smiles": "CCc1ccc(/C=C2\\SC(=S)NC2=O)cc1", "values": [{"measurement": "pIC50", "setting": "[14]", "result": 4.31}, {"measurement": "Activity", "setting": "[8]", "result": 5.3, "unit": "µM"}]}
